# Assay results published in patent US8884026B2, “Process for preparing rufinamide intermediate” (Laboratorios Lesvi, S.L., priority 2010, dated 2014).
# Key:
# [1] = Grinding experiments in a ball mill, solid phase by PXRD; format: physicochemical; settings: with solvent or without solvent
# Protocol: Grinding experiments were performed in a Retsch MM400 Ball Mill using the following methodology: samples of 30 mg of phase R-5 of Rufinamide were grinded at a frequency of 20 s^−1 for 15 min, with a drop of solvent and without solvent.
# [2] = Thermal stability experiments under vacuum, solid phase by PXRD; format: physicochemical; settings: 40° C., 1 mbar, different periods of time
# Protocol: Further advantages of polymorphic form R-5 arose from the significant good thermal stability that has shown over time. […] Thermal stability experiments were performed in a Binder Vacuum oven VD53 using the following methodology. Samples of from R-5 of Rufinamide were kept under vacuum, at 40° C. for different periods of times (at 1 mbar), see table 3 below. There were no significant differences in the PXRD patterns of the solids obtained after the thermal treatment.
structure (smiles),measurement,setting,value
"NC(=O)c1cn(Cc2c(F)cccc2F)nn1 [R-5, 1-(2,6-difluorobenzyl)-1H-1,2,3-triazole-4-carboxamide]",Change of polymorphic form by grinding,[1],does not change
same,Change of polymorphic form under accelerated degradation (thermal stability),[2],No changes in polymorphic form
